Source: ChEMBL document CHEMBL1201862, “PubChem BioAssay data set” (2004)
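Each compound was tested at five concentrations against cells in 96-well plates for 48 hours. GI50: concentration for 50% inhibition of growth.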 Calls of active or inactive are those of the source. Cut-off read from the data, not from the text of the source: active = GI50 up to about 1.1 µM and inactive = higher.

How the values were obtained:
Assay in all cases: NCI anticancer screen, dose series, 48 h
SF-539 = test system: SF-539
NCI-H460 = test system: NCI-H460
EKVX = test system: EKVX
SW-620 = test system: SW-620
UO-31 = test system: UO-31
MOLT-4 = test system: MOLT-4
SF-268 = test system: SF-268
SNB-19 = test system: SNB-19
RPMI-8226 = test system: RPMI-8226
Malme-3M = test system: Malme-3M
HL-60 = test system: HL-60
KM12 = test system: KM12
HCT-116 = test system: HCT-116
SNB-75 = test system: SNB-75
UACC-62 = test system: UACC-62
CAKI-1 = test system: CAKI-1
A549 = test system: A549
M14 = test system: M14
SK-MEL-28 = test system: SK-MEL-28

Measured: GI50

O=C1c2c(c(-c3ccccc3)c(-c3ccccc3)c(-c3ccccc3)c2-c2ccccc2)C(=O)N1c1cccc(Br)c1
inactive: SF-539 > 100 µM | NCI-H460 > 100 µM | EKVX > 100 µM | SW-620 > 100 µM | UO-31 > 100 µM | MOLT-4 > 100 µM | SF-268 > 100 µM | SNB-19 > 100 µM | RPMI-8226 > 100 µM | Malme-3M > 100 µM | HL-60 > 100 µM | KM12 > 100 µM | HCT-116 > 100 µM | SNB-75 > 100 µM | UACC-62 > 100 µM | CAKI-1 > 100 µM | A549 > 100 µM | M14 58.3 µM

O=C(NC(=O)c1cn(CCNCCO)c(=O)[nH]c1=O)OCc1ccccc1
inactive: SK-MEL-28 > 100 µM | SF-539 > 100 µM | NCI-H460 > 100 µM | EKVX > 100 µM | SW-620 > 100 µM | MOLT-4 > 100 µM | SF-268 > 100 µM | RPMI-8226 > 100 µM | Malme-3M > 100 µM | HL-60 > 100 µM | KM12 > 100 µM | HCT-116 > 100 µM | SNB-75 45.9 µM | UACC-62 > 100 µM | CAKI-1 > 100 µM | A549 > 100 µM | M14 > 100 µM

CC(=O)O[C@H]1CC[C@@]2(C)C(=CC[C@@H]3C2CC[C@]2(C)Nc4nc5ccccc5cc4CC32)C1 (stereo not given in full)
inactive: SF-539 3.78 µM | NCI-H460 4.57 µM | EKVX 5.74 µM | SW-620 2.59 µM | UO-31 4.92 µM | MOLT-4 3.3 µM | SF-268 4.2 µM | SNB-19 2.97 µM | RPMI-8226 8.65 µM | Malme-3M 6.55 µM | HL-60 4.32 µM | KM12 3.88 µM | HCT-116 1.86 µM | SNB-75 2.65 µM | UACC-62 10.8 µM | CAKI-1 4.28 µM | A549 3.34 µM | M14 2.19 µM

COc1ccc(C2S/C(=C\c3ccc(OC)cc3OC)C(=O)N2NC(=O)Cc2ccccc2)cc1 (stereo not given)
inactive: SF-539 > 100 µM | NCI-H460 > 100 µM | SW-620 > 100 µM | UO-31 > 100 µM | MOLT-4 > 100 µM | SF-268 > 100 µM | RPMI-8226 > 100 µM | Malme-3M > 100 µM | HL-60 97.9 µM | KM12 > 100 µM | HCT-116 > 100 µM | SNB-75 > 100 µM | UACC-62 > 100 µM | CAKI-1 > 100 µM | A549 > 100 µM | M14 > 100 µM

O=C(/C=C/c1ccccc1O)c1ccccc1Cl
inactive: SK-MEL-28 > 100 µM | SF-539 44.5 µM | NCI-H460 34 µM | EKVX 41.6 µM | SW-620 35.5 µM | UO-31 52.4 µM | MOLT-4 30.7 µM | SF-268 44.5 µM | SNB-19 45.1 µM | Malme-3M > 100 µM | HL-60 15.3 µM | KM12 24.6 µM | HCT-116 48.6 µM | SNB-75 14.8 µM | UACC-62 67.5 µM | CAKI-1 49.8 µM | A549 > 100 µM | M14 54.5 µM

CCc1cccc(C(C)CC)c1/N=C(/NC(=O)c1ccccc1C(=O)N/C(=N/c1c(CC)cccc1C(C)CC)SC)SC (stereo not given)
inactive: SK-MEL-28 45 µM | SF-539 26.5 µM | NCI-H460 50.4 µM | EKVX 35.6 µM | SW-620 31.9 µM | UO-31 30.6 µM | MOLT-4 29.2 µM | SF-268 72.3 µM | SNB-19 49.8 µM | RPMI-8226 30.1 µM | Malme-3M 48.5 µM | HL-60 20.9 µM | KM12 36 µM | HCT-116 34.4 µM | UACC-62 20.9 µM | CAKI-1 42.2 µM | A549 47.3 µM | M14 20 µM

CC(=O)N1c2ccccc2N(C(C)=O)C1c1ccc(C2N(C(C)=O)c3ccccc3N2C(C)=O)[nH]1
inactive: SF-539 > 100 µM | NCI-H460 > 100 µM | EKVX > 100 µM | SW-620 > 100 µM | UO-31 > 100 µM | MOLT-4 > 100 µM | SF-268 > 100 µM | SNB-19 > 100 µM | RPMI-8226 > 100 µM | Malme-3M > 100 µM | HL-60 > 100 µM | KM12 > 100 µM | HCT-116 > 100 µM | SNB-75 > 100 µM | UACC-62 > 100 µM | CAKI-1 > 100 µM | A549 > 100 µM | M14 > 100 µM

Cc1ccc(S(=O)(=O)N/N=C/c2oc(-c3ccncc3)c(-c3ccncc3)c2[N+](=O)[O-])cc1
inactive: SK-MEL-28 > 100 µM | SF-539 > 100 µM | NCI-H460 > 100 µM | EKVX > 100 µM | SW-620 > 100 µM | UO-31 > 100 µM | MOLT-4 > 100 µM | SF-268 > 100 µM | SNB-19 > 100 µM | Malme-3M > 100 µM | HL-60 > 100 µM | KM12 > 100 µM | HCT-116 > 100 µM | SNB-75 > 100 µM | UACC-62 > 100 µM | CAKI-1 > 100 µM | A549 > 100 µM | M14 > 100 µM

CC1CCC(C(C)(C)c2ccccc2)C(=O)C1 (stereo not given)
inactive: SF-539 > 100 µM | NCI-H460 > 100 µM | EKVX > 100 µM | SW-620 > 100 µM | UO-31 18.3 µM | MOLT-4 > 100 µM | SF-268 > 100 µM | SNB-19 > 100 µM | RPMI-8226 95.3 µM | Malme-3M > 100 µM | HL-60 25.6 µM | KM12 > 100 µM | HCT-116 > 100 µM | SNB-75 > 100 µM | UACC-62 > 100 µM | CAKI-1 74.8 µM | A549 > 100 µM | M14 > 100 µM

COC(=O)CCC(NC(=S)N/N=C(\C)c1ccccn1)C(=O)OC (stereo not given)
inactive: SK-MEL-28 66.7 µM | SF-539 85.7 µM | NCI-H460 65.8 µM | EKVX 43.6 µM | SW-620 55.3 µM | UO-31 38.1 µM | MOLT-4 24.2 µM | SF-268 52.1 µM | SNB-19 > 100 µM | RPMI-8226 44.4 µM | Malme-3M 45.4 µM | HL-60 18.5 µM | KM12 91.6 µM | HCT-116 60.8 µM | SNB-75 > 100 µM | UACC-62 34.8 µM | A549 66.8 µM | M14 31.6 µM

C/C(=C\c1ccccc1)C(O)S(=O)(=O)O (stereo not given)
inactive: SK-MEL-28 > 100 µM | NCI-H460 > 100 µM | EKVX > 100 µM | SW-620 > 100 µM | UO-31 > 100 µM | MOLT-4 > 100 µM | SF-268 > 100 µM | SNB-19 > 100 µM | RPMI-8226 > 100 µM | Malme-3M > 100 µM | HL-60 > 100 µM | KM12 > 100 µM | HCT-116 > 100 µM | SNB-75 > 100 µM | UACC-62 > 100 µM | CAKI-1 > 100 µM | A549 > 100 µM | M14 > 100 µM
